Reference: ChEMBL document CHEMBL1201862, “PubChem BioAssay data set” (2004)
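Grown in 96-well plates, cells were treated for 48 hours with each compound at five concentrations. Insufficient inhibition: endpoint recorded as highest concentration tested. Abbreviation: GI50, concentration required for 50% inhibition of growth.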 Activity calls are given as the source filed them. No stated cut-off is given here; in the data, active = GI50 up to about 1.1 µM and inactive = higher.

How the values were obtained:
Assay in all cases: inhibition of tumour cell growth, NCI panel, 48 h
[1] = tested on: BT-549
[2] = tested on: HL-60
[3] = tested on: Hs-578T
[4] = tested on: IGROV-1
[5] = tested on: K562
[6] = tested on: MDA-MB-435
[7] = tested on: MOLT-4
[8] = tested on: OVCAR-4
[9] = tested on: SK-MEL-2
[10] = tested on: SNB-75
[11] = tested on: 786-0
[12] = tested on: A498
[13] = tested on: A549
[14] = tested on: ACHN
[15] = tested on: CAKI-1
[16] = tested on: CCRF-CEM
[17] = tested on: DU-145
[18] = tested on: EKVX
[19] = tested on: HCC 2998
[20] = tested on: HCT-116
[21] = tested on: HCT-15
[22] = tested on: HOP-62
[23] = tested on: HOP-92
[24] = tested on: KM12
[25] = tested on: LOX IMVI
[26] = tested on: M14
[27] = tested on: MCF7
[28] = tested on: MDA-MB-231
[29] = tested on: MDA-N
[30] = tested on: NCI-H226
[31] = tested on: NCI/ADR-RES
[32] = tested on: OVCAR-3
[33] = tested on: OVCAR-5
[34] = tested on: PC-3
[35] = tested on: RXF 393
[36] = tested on: SF-268
[37] = tested on: SF-295
[38] = tested on: SF-539
[39] = tested on: SK-MEL-28
[40] = tested on: SK-MEL-5
[41] = tested on: SK-OV-3
[42] = tested on: SN12C
[43] = tested on: SNB-19
[44] = tested on: SW-620
[45] = tested on: T47D
[46] = tested on: TK-10
[47] = tested on: U-251
[48] = tested on: UACC-257
[49] = tested on: UACC-62
[50] = tested on: UO-31
[51] = tested on: COLO 205
[52] = tested on: HT-29
[53] = tested on: NCI-H23
[54] = tested on: NCI-H460
[55] = tested on: NCI-H522
[56] = tested on: OVCAR-8
[57] = tested on: SR
[58] = tested on: RPMI-8226

CN(C)CCSC1=Nc2ccc(Cl)cc2C(c2ccccc2Cl)=NC1
GI50 [1]: 42.3 µM (inactive) | GI50 [2]: 30.3 µM (inactive) | GI50 [3]: 21.4 µM (inactive) | GI50 [4]: 92.5 µM (inactive) | GI50 [5]: 34.6 µM (inactive) | GI50 [6]: 17.9 µM (inactive) | GI50 [7]: 31.4 µM (inactive) | GI50 [8]: > 100 µM (inactive) | GI50 [9]: > 100 µM (inactive) | GI50 [10]: 30.1 µM (inactive)

CC1(C)C(CCO)CC1n1ccc(=O)[nH]c1=O (centres undefined)
GI50 [11]: > 100 µM (inactive) | GI50 [12]: > 100 µM (inactive) | GI50 [13]: > 100 µM (inactive) | GI50 [14]: > 100 µM (inactive) | GI50 [15]: > 100 µM (inactive) | GI50 [16]: > 100 µM (inactive) | GI50 [17]: > 100 µM (inactive) | GI50 [18]: > 100 µM (inactive) | GI50 [19]: > 100 µM (inactive) | GI50 [20]: > 100 µM (inactive) | GI50 [21]: > 100 µM | GI50 [22]: > 100 µM (inactive) | GI50 [23]: > 100 µM (inactive) | GI50 [3]: > 100 µM (inactive) | GI50 [5]: 10.6 µM (inactive) | GI50 [24]: > 100 µM (inactive) | GI50 [25]: > 100 µM (inactive) | GI50 [26]: > 100 µM (inactive) | GI50 [27]: > 100 µM (inactive) | GI50 [28]: > 100 µM (inactive) | GI50 [6]: > 100 µM (inactive) | GI50 [29]: > 100 µM (inactive) | GI50 [30]: > 100 µM (inactive) | GI50 [31]: > 100 µM (inactive) | GI50 [32]: > 100 µM (inactive) | GI50 [8]: > 100 µM (inactive) | GI50 [33]: > 100 µM (inactive) | GI50 [34]: > 100 µM (inactive) | GI50 [35]: > 100 µM (inactive) | GI50 [36]: > 100 µM (inactive) | GI50 [37]: > 100 µM (inactive) | GI50 [38]: > 100 µM (inactive) | GI50 [39]: > 100 µM (inactive) | GI50 [9]: > 100 µM (inactive) | GI50 [40]: > 100 µM (inactive) | GI50 [41]: > 100 µM (inactive) | GI50 [42]: > 100 µM (inactive) | GI50 [43]: > 100 µM (inactive) | GI50 [10]: > 100 µM (inactive) | GI50 [44]: > 100 µM (inactive) | GI50 [45]: > 100 µM (inactive) | GI50 [46]: > 100 µM (inactive) | GI50 [47]: > 100 µM (inactive) | GI50 [48]: > 100 µM (inactive) | GI50 [49]: > 100 µM (inactive) | GI50 [50]: > 100 µM (inactive)

CC1(C)[N+]([O-])=[N+]([O-])C1(C)Br (centres undefined)
GI50 [11]: > 100 µM (inactive) | GI50 [13]: > 100 µM (inactive) | GI50 [14]: > 100 µM (inactive) | GI50 [1]: > 100 µM (inactive) | GI50 [15]: > 100 µM (inactive) | GI50 [16]: > 100 µM (inactive) | GI50 [51]: > 100 µM (inactive) | GI50 [18]: > 100 µM (inactive) | GI50 [19]: > 100 µM (inactive) | GI50 [20]: > 100 µM (inactive) | GI50 [21]: > 100 µM | GI50 [22]: > 100 µM (inactive) | GI50 [52]: > 100 µM (inactive) | GI50 [3]: > 100 µM (inactive) | GI50 [4]: > 100 µM (inactive) | GI50 [5]: > 100 µM (inactive) | GI50 [24]: > 100 µM (inactive) | GI50 [25]: > 100 µM (inactive) | GI50 [26]: > 100 µM (inactive) | GI50 [27]: > 100 µM (inactive) | GI50 [28]: > 100 µM (inactive) | GI50 [6]: > 100 µM (inactive) | GI50 [7]: > 100 µM (inactive) | GI50 [30]: > 100 µM (inactive) | GI50 [53]: > 100 µM (inactive) | GI50 [54]: > 100 µM (inactive) | GI50 [55]: > 100 µM (inactive) | GI50 [31]: 65.8 µM (inactive) | GI50 [32]: > 100 µM (inactive) | GI50 [8]: > 100 µM (inactive) | GI50 [33]: > 100 µM (inactive) | GI50 [56]: > 100 µM (inactive) | GI50 [34]: > 100 µM (inactive) | GI50 [35]: 43.8 µM (inactive) | GI50 [36]: > 100 µM (inactive) | GI50 [37]: 82.4 µM (inactive) | GI50 [38]: > 100 µM (inactive) | GI50 [39]: > 100 µM (inactive) | GI50 [9]: > 100 µM (inactive) | GI50 [40]: > 100 µM (inactive) | GI50 [41]: > 100 µM (inactive) | GI50 [42]: > 100 µM (inactive) | GI50 [43]: > 100 µM (inactive) | GI50 [10]: > 100 µM (inactive) | GI50 [57]: 91 µM (inactive) | GI50 [44]: > 100 µM (inactive) | GI50 [46]: > 100 µM (inactive) | GI50 [47]: > 100 µM (inactive) | GI50 [48]: > 100 µM (inactive) | GI50 [49]: > 100 µM (inactive) | GI50 [50]: > 100 µM (inactive)

Cc1cc2c(cc1Cl)SC(c1ccccc1)C(=O)NS2(=O)=O (centres undefined)
GI50 [11]: 31.6 µM (inactive) | GI50 [12]: 26.9 µM (inactive) | GI50 [14]: 36.7 µM (inactive) | GI50 [15]: 38.9 µM (inactive) | GI50 [16]: 47.4 µM (inactive) | GI50 [17]: 34.9 µM (inactive) | GI50 [18]: 70.1 µM (inactive) | GI50 [19]: 30.3 µM (inactive) | GI50 [20]: 20.5 µM (inactive) | GI50 [21]: 25 µM | GI50 [2]: 29.3 µM (inactive) | GI50 [22]: 44.3 µM (inactive) | GI50 [23]: 30.5 µM (inactive) | GI50 [52]: 32 µM (inactive) | GI50 [3]: 27.5 µM (inactive) | GI50 [4]: 40.8 µM (inactive) | GI50 [5]: 39.2 µM (inactive) | GI50 [24]: 30.3 µM (inactive) | GI50 [25]: 31.6 µM (inactive) | GI50 [26]: 39 µM (inactive) | GI50 [27]: 34 µM (inactive) | GI50 [28]: 32.3 µM (inactive) | GI50 [6]: 35.1 µM (inactive) | GI50 [29]: 34.1 µM (inactive) | GI50 [7]: 26 µM (inactive) | GI50 [30]: 36.3 µM (inactive) | GI50 [53]: 24.4 µM (inactive) | GI50 [54]: 30.3 µM (inactive) | GI50 [55]: 25.9 µM (inactive) | GI50 [31]: 29.5 µM (inactive) | GI50 [32]: 21.6 µM (inactive) | GI50 [8]: 35.4 µM (inactive) | GI50 [33]: 45.9 µM (inactive) | GI50 [56]: 36.2 µM (inactive) | GI50 [34]: 26.4 µM (inactive) | GI50 [58]: 34 µM (inactive) | GI50 [35]: 31.4 µM (inactive) | GI50 [36]: 33.3 µM (inactive) | GI50 [37]: 28.3 µM (inactive) | GI50 [38]: 26.7 µM (inactive) | GI50 [39]: 34.8 µM (inactive) | GI50 [9]: 17.3 µM (inactive) | GI50 [40]: 21.6 µM (inactive) | GI50 [41]: 31.9 µM (inactive) | GI50 [10]: 19.7 µM (inactive) | GI50 [57]: 27.5 µM (inactive) | GI50 [44]: 40 µM (inactive) | GI50 [45]: 30.1 µM (inactive) | GI50 [46]: 37.6 µM (inactive) | GI50 [47]: 23.1 µM (inactive) | GI50 [48]: 28.2 µM (inactive) | GI50 [50]: 28.1 µM (inactive)
